Where a SMILES comes first, the peptide text is derived from it. The star is where a group is joined. X1 = CCCCCCCCCCCCCCNC(=O)OC[C@H](C*)OC(=O)NCCCCCCCCCCCCCC; Palmitoyl = CCCCCCCCCCCCCCCC(=O)*
What was measured:
[1] = system: splenic CD8^+ cDCs; test: CD40 and CD86 expression on splenic CD8+ cDCs after i.v. administration; format: in vivo, mice; conditions: 2 nmol per mouse i.v., 1 h
Procedure: Figure 4 SUP3 stimulated maturation of CD8^+ conventional dendritic cells (cDCs). (A) Purified CD8^+ cDCs were treated with SUP3 (200 nM) or Pam3 (200 nM) in the presence of granulocyte-macrophage colony-stimulating factor (GM-CSF) (20 ng/mL) for 24 h. The surface expression of costimulatory and major histocompatibility complex (MHC) molecules were then analyzed by flow cytometry. Representative data from three independent experiments were shown. “Isotype” represented relative isotype antibody staining of Pam3 or SUP3 stimulated cells. (B) SUP3 (2 nmol per mouse), Pam3 (2 nmol per mouse), or PBS were i.v. injected into mice for 1 h. Splenic CD8^+ cDCs were enriched, and surface expression of CD40 and CD86 was analyzed by flow cytometry. Representative data from two independent experiments with three mice for each group were shown. (C) Purified CD8^+ cDCs were treated with SUP3 (200 nM) or Pam3 (200 nM) for indicated periods (0~120 min), and western blot analysis was performed with the cell lysate for phosphorylated p65 (p-p65), IκBα, p-ERK, ERK, p-JNK, JNK, p-p38, and p38. Blot of p38 was also regarded as loading control. (D) Purified CD8^+ cDCs were treated with CpG 1668 (20 nM), SUP3 (200 nM), or Pam3 (200 nM) in the presence of GM-CSF (20 ng/mL). Supernatants were harvested 24 and 48 h post-stimulation, and cytokines were measured by ELISA. […]

[2] = system: RAW 264.7 cells; test: TNFα production by WT RAW 264.7 cells; format: cell-based; conditions: 500 nM, 8 h
Procedure: Splenic DCs (5 × 10^5 cells/mL) were stimulated by Pam3 (200 nM), SUP3 (200 nM), or CpG ODN 1668 (20 nM; Adipogen IAX-200-001) in the GM-CSF (20 ng/mL) supplemented medium for indicated periods. Cell culture supernatants were harvested at indicated time points and stored at −40°C. […] For in vivo administration, Pam3 (2 nmol per mouse), SUP3 (2 nmol per mouse), or LPS (1 µg per mouse) were intravenously (i.v.) injected via tail veins. Serum was obtained through tail vein bleeding and centrifuged after coagulation and stored at −40°C. Cytokines (IL-6, eBioscience 88-7064; TNFα, eBioscience 88-7324; IL-12p40, BioLegend 431604), chemokine (MIP1α, R&D Systems DY450-05), and total IgM (eBioscience, 88-50470) were quantified by ELISA kits following the instructions of manufacturers.
Figure 1 Specificity and activity of novel TLR2 agonist SUP3. (A) Schematic chemical structure of SUP3. (B) Surface expression of TLR2 in wild-type (WT) and Tlr2^−/− RAW 264.7 cell lines. Gray shadows represented isotype control and black lines represented TLR2. (C) TNFα production by RAW 264.7 cells upon stimulation with lipopolysaccharide (LPS) (1 µg/mL), Pam3CSK4 (Pam3 hereafter) (500 nM), or SUP3 (500 nM) for 8 h. […] The production of cytokines IL-6 and TNFα in culture supernatant was determined by ELISA. *p < 0.05, ****p < 0.0001, “n.s.” indicates statistically non-significant.

[3] = system: Tlr2^−/− RAW 264.7 cells; test: TNFα production by Tlr2−/− RAW 264.7 cells (TLR2 specificity); format: cell-based; conditions: 500 nM, 8 h
Procedure: Tlr2^−/− RAW 264.7 cells were generated by lentiviral CRISPR-Cas9 system as described previously ([36]). Briefly, target guide sequences (5′-[…]-3′, 3′-[…]-5′) designed by Genome Engineering 3.0 were ligated into lentiviral vector lentiCRISPR (Addgene 52961). Then lentiCRISPR as well as packaging plasmids pMD2.G (Addgene 12259) and psPax2 (Addgene 12260) were co-transfected into 293FT cells by CaCl2 (12.5 mM) for virus packaging. Fresh cell culture medium was changed 12 h post-transfection. After another 72 h, 293FT cell culture supernatant containing virus was harvested, filtered, and concentrated. Then, RAW 264.7 cells were infected by the virus (~5 × 10^5 TU/mL) with the presence of 8 µg/mL polybrene (Sigma H9268). […]
Splenic DCs (5 × 10^5 cells/mL) were stimulated by Pam3 (200 nM), SUP3 (200 nM), or CpG ODN 1668 (20 nM; Adipogen IAX-200-001) in the GM-CSF (20 ng/mL) supplemented medium for indicated periods. […] Cytokines (IL-6, eBioscience 88-7064; TNFα, eBioscience 88-7324; IL-12p40, BioLegend 431604), chemokine (MIP1α, R&D Systems DY450-05), and total IgM (eBioscience, 88-50470) were quantified by ELISA kits following the instructions of manufacturers.
Figure 1 Specificity and activity of novel TLR2 agonist SUP3. […] The production of cytokines IL-6 and TNFα in culture supernatant was determined by ELISA. *p < 0.05, ****p < 0.0001, “n.s.” indicates statistically non-significant.

Row | Compound | expressions of CD40 and CD86 on splenic CD8+ cDCs in vivo [1] | TNFα production by WT RAW cells [2] | TNFα secretion by Tlr2−/− RAW cells [3]
1 | CCCCCCCCCCCCCCCC(=O)N[C@@H](CSC[C@@H](COC(=O)NCCCCCCCCCCCCCC)OC(=O)NCCCCCCCCCCCCCC)C(=O)NCC(=O)N[C@@H](CCCCN)C(=O)N[C@@H](CCCCN)C(=O)N[C@@H](CCCCN)C(=O)O [SUP3, (2S,5S,8S,14R,18R)-2,5,8-tris(4-aminobutyl)-4,7,10,13,21-pentaoxo-14-palmitamido-18-((tetradecylcarbamoyl)oxy)-20-oxa-16-thia-3,6,9,12,22-pentaazahexatriacontan-1-oic acid] (Palmitoyl-C(X1)GKKK-OH) | increased | large amount of TNFα production | no secretion of TNFα
2 | Pam3CSK4 [reference compound] | increased | large amount of TNFα production | no secretion of TNFα
